According to patent US10501433B2, “Kynurenine-3-monooxygenase inhibitors, pharmaceutical compositions, and methods of use thereof” (CHDI Foundation, Inc., priority 2013, dated 2019):

Each compound was assayed against T1, KMO mouse enzyme (Mus musculus, UniProt Q91WN4) (assay: KMO enzyme assay monitoring L-Kynurenine hydroxylation to 3OH-KYN by LC/MS (protocols substantially similar to Biology Example 3)). Details: compound at 30 μM; KMO enzyme from mouse liver mitochondria; 100 μM L-Kynurenine.
T1 construct: KMO enzyme prepared at Evotec from mouse liver (4-6 weeks old) via mitochondria isolation; from tissue; host or cells: mouse liver (4-6 weeks old), isolated mitochondria
T1 sequence (Q91WN4 whole entry): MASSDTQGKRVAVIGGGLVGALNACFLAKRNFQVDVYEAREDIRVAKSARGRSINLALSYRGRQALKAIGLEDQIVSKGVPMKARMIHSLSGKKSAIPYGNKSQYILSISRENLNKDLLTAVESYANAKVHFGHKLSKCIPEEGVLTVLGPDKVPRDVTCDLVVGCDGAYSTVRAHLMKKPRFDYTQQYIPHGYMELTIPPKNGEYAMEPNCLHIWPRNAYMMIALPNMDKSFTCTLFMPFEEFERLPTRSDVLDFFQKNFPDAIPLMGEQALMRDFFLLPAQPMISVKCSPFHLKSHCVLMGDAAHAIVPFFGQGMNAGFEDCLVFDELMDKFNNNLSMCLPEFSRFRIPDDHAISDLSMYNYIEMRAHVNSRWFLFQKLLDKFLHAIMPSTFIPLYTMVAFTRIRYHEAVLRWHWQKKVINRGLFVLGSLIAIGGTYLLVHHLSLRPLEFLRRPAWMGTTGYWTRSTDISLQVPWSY
Format: biochemical
Experimental: A method of monitoring L-Kynurenine (KYN) hydroxylation to form 3-Hydroxy-Kynurenine (3OH-KYN) by LC/MS is described. Product is quantified by multiple reaction monitoring (MRM method).
• Compound: Stock concentrations: 10 mM in 100% DMSO • Enzyme: KMO enzyme prepared at Evotec from mouse liver (4-6 weeks old) via mitochondria isolation as described in the literature • Substrate: L-Kynurenine (Sigma: Cat #K3750, stock concentration: 10 mM in 100 mM potassium phosphate buffer, pH 7.4) Assay Conditions: • Buffer: 100 mM potassium phosphate, pH 7.4, 200 μM NADPH, 0.4 U/ml G6P-DH (Glucose 6-phosphate Dehydrogenase), 3 mM G6P (D-Glucose 6-phosphate) • Assay Volume: 40 μl • Plate Format: 384 well plate, transparent (Matrix) • Read-Out: product (3OH-KYN) quantification using product specific MRM • Reader: LC/MS/MS Assay Protocol: • prepare serial dilution (factor 3) of compound in 100% DMSO (top concentration=10 mM, 100% DMSO) • [[…]: 10 mM; 3.33 mM; 1.11 mM; 0.37 mM; 0.12 mM; 0.04 mM; 0.0137 mM; 0.0045 mM, […]] • prepare 3.33-fold concentrated solution of each compound concentration (top concentration 300 μM, 3% DMSO) in assay buffer • [concentrations: 300 μM; 100 μM; 33.3 μM; 11.1 μM; 3.70 μM; 1.23 μM; 0.41 μM; 0.137 μM] • prepare substrate (10 mM) at concentration of 1 mM in assay buffer • assay mix: 4 μl compound/well of each concentration+24 μl assay buffer/well+8 μl KMO mouse enzyme+4 μl 1 mM substrate (final concentration=100 μM) • [final compound top concentration: 30 μM; 0.3% DMSO] • [final compound bottom concentration: 0.0137 μM; 0.3% DMSO] • positive control: 4 μl 50 μM FCE28833 in assay buffer, 0.5% DMSO [final assay concentration=5 μM]+24 μl assay buffer/well+8 μl KMO mouse enzyme+4 μl mM substrate [final concentration=100 μM] • negative control: 28 μl assay buffer/well+8 μl KMO mouse enzyme+4 μl 1 mM substrate • [final concentration=100 μM] • incubate 40 min at RT • add 40 μl/well 10% trichloro acetic acid in water to stop the assay and precipitate protein • centrifuge plate for 3 min at 4000 rpm • product detection by LC/MS (injection of 20 μl/well, 2 fold overfill of the 10 μl sample loop) Data Analysis:
IC50's are calculated using automated fitting algorithm (A+ Analysis).
Using the assay protocols substantially similar to those of Biology Example 3, the following compounds were tested.

Row | SMILES | inhibition at 30 µM [%]
1 | O=C(O)[C@H]1C[C@@H]1C(=O)c1cc(Cl)c2c(c1)CCCO2 [Example 1, Method 2, (1S, 2S)-2-(8-Chloro-3,4-dihydro-2H-1-benzopyran-6-carbonyl)cyclopropane-1-carboxylic acid] | 100
2 | Cn1c(=O)oc2cc(C(=O)[C@H]3C[C@@H]3C(=O)O)cc(Cl)c21 [Example 1, Method 3, (1S,2S)-2-(4-Chloro-3-methyl-2-oxo-2,3-dihydro-1,3-benzoxazole-6-carbonyl)cyclopropane-1-carboxylic acid] | 93.5
3 | CC1COc2c(Cl)cc(C(=O)[C@H]3C[C@@H]3C(=O)O)cc2C1 (stereo partly drawn) [Example 1, Method 7, (1S,2S)-2-(8-Chloro-3-methyl-3,4-dihydro-2H-1-benzopyran-6-carbonyl)cyclo-propane-1-carboxylic acid] | 101
4 | O=C(O)[C@H]1C[C@@H]1C(=O)c1cc(Cl)c2c(c1)OCCO2 [Example 1, Method 8, (1S,2S)-2-(8-Chloro-2,3-dihydro-1,4-benzodioxine-6-carbonyl)cyclopropane-1-carboxylic acid] | 102
5 | O=C(O)[C@H]1C[C@@H]1C(=O)c1cc(Cl)c2c(c1)OCO2 [Example 1, Method 9, (1S,2S)-2-(7-Chloro-2H-1,3-benzodioxole-5-carbonyl)cyclopropane-1-carboxylic acid] | 102
6 | CC1Oc2cc(C(=O)[C@H]3C[C@@H]3C(=O)O)cc(Cl)c2O1 (stereo partly drawn) [Example 1, Method 10, (1S,2S)-2-(7-Chloro-2-methyl-2H-1,3-benzodioxole-5-carbonyl)cyclopropane-1-carboxylic acid] | 102
7 | Cn1c(=O)oc2c(Cl)cc(C(=O)[C@H]3C[C@@H]3C(=O)O)cc21 [Example 2, Method 3, (1S,2S)-2-(7-Chloro-3-methyl-2-oxo-2,3-dihydro-1,3-benzoxazole-5-carbonyl)cyclopropane-1-carboxylic acid] | 101

Results, then the compound that gave them:

Row | inhibition at 30 µM [%] | SMILES
8 | 100 | O=C(O)[C@H]1C[C@@H]1C(=O)c1cc(Cl)c2c(c1)CCO2 [Example 1, Method 1, (1S, 2S)-2-(7-chloro-2,3-dihydro-1-benzofuran-5-carbonyl)cyclopropane-1-carboxylic acid]
9 | 102 | O=C(O)[C@H]1C[C@@H]1C(=O)c1ccc2c(c1)OCCO2 [Example 1, Method 4, (1S,2S)-2-(2,3-Dihydro-1,4-benzodioxine-6-carbonyl)cyclopropane-1-carboxylic acid]
10 | 103 | CC1Cc2cc(C(=O)[C@H]3C[C@@H]3C(=O)O)ccc2O1 (stereo partly drawn) [Example 1, Method 5, (1S,2S)-2-(2-methyl-2,3-dihydro-1-benzofuran-5-carbonyl)cyclopropane-1-carboxylic acid]
11 | 100 | CC1Cc2cc(C(=O)[C@H]3C[C@@H]3C(=O)O)cc(Cl)c2O1 (stereo partly drawn) [Example 1, Method 6, (1S,2S)-2-(7-chloro-2-methyl-2,3-dihydro-1-benzofuran-5-carbonyl)-cyclo-propane-1-carboxylic acid]
12 | 98.7 | O=C(O)[C@H]1C[C@@H]1C(=O)c1ccc2c(c1)CCO2 [Example 2, Method 1, (1S,2S)-2-(2,3-dihydro-1-benzofuran-5-carbonyl)cyclopropane-1-carboxylic acid]
13 | 101 | O=C(O)[C@H]1C[C@@H]1C(=O)c1ccc2c(c1)CCCO2 [Example 2, Method 4, (1S,2S)-2-(3,4-dihydro-2H-1-benzopyran-6-carbonyl)cyclopropane-1-carboxylic acid]
14 | 64.8 | CC1(C)Cc2cc(C(=O)[C@H]3C[C@@H]3C(=O)O)ccc2O1 [Example 2, Method 5, (1S,2S)-2-(2,2-Dimethyl-2,3-dihydro-1-benzofuran-5-carbonyl)cyclopropane-1-carboxylic acid]
15 | 101 | O=C(O)[C@H]1C[C@@H]1C(=O)c1ccc2c(c1)SCCO2 [Example 3, Method 5, (1S,2S)-2-(2,3-dihydro-1,4-benzoxathiine-6-carbonyl)cyclopropane-1-carboxylic acid]
16 | 94.1 | O=C(O)[C@H]1C[C@@H]1C(=O)c1ccc2c(c1)OCO2 [Example 4, Method 5, (1S,2S)-2-(2H-1,3-benzodioxole-5-carbonyl)cyclopropane-1-carboxylic acid]
